Data from PubChem BioAssay AID2060903 (Molecular Pharmacology Branch, DTP, NCI, 2025).

Tested on: 377384-186-R-J1-PDC complex spheroid viability
Test: Anticancer human tumor 377384-186-R-J1-PDC patient-derived pancreatic carcinoma cell line growth inhibition [RAS]
Details: for viability, T/C: stronger effect = lower value
How it was run: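 Tumour cells grown as complex spheroids with HUVEC endothelial cells and mesenchymal stem cells, treated with RAS pathway inhibitor combinations. Each agent spans half-log steps from near clinical Cmax, or 10 microM where Cmax is unknown.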
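Further: spheroids exposed to compounds for seven days before readout.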

CCC(CC)c1cc(NC2CCC(N)C2)n2nccc2n1 (stereo unspecified) + CCn1c(-c2cc(N3CCN(C)CC3)cnc2C(C)OC)c2c3cc(ccc31)-c1csc(n1)CC(NC(=O)C1CC1C)C(=O)N1CCCC(N1)C(=O)OCC(C)(C)C2
IC50 (curve of first compound, second compound 0.000949 µM): < 0.0316 µM
IC50 (curve of first compound, second compound 0.003 µM): < 0.0316 µM
IC50 (curve of first compound, second compound 0.00949 µM): < 0.0316 µM
IC50 (curve of first compound, second compound 0.03 µM): < 0.0316 µM
IC50 (curve of first compound, second compound 0.0949 µM): < 0.0316 µM
IC50 (curve of first compound, second compound 0.3 µM): < 0.0316 µM
viability, T/C (second compound 0.000949 µM, first compound 0.0316 µM): 48.2%
viability, T/C (second compound 0.000949 µM, first compound 0.1 µM): 55%
viability, T/C (second compound 0.000949 µM, first compound 0.316 µM): 46.9%
viability, T/C (second compound 0.000949 µM, first compound 1 µM): 32.9%
viability, T/C (second compound 0.000949 µM, first compound 3.16 µM): 0.81%
viability, T/C (second compound 0.000949 µM, first compound 10 µM): 2.3%
viability, T/C (second compound 0.003 µM, first compound 0.0316 µM): 21.7%
viability, T/C (second compound 0.003 µM, first compound 0.1 µM): 16.6%
viability, T/C (second compound 0.003 µM, first compound 0.316 µM): 20.9%
viability, T/C (second compound 0.003 µM, first compound 1 µM): 10.7%
viability, T/C (second compound 0.003 µM, first compound 3.16 µM): 0.83%
viability, T/C (second compound 0.003 µM, first compound 10 µM): 2.38%
viability, T/C (second compound 0.00949 µM, first compound 0.0316 µM): 4.86%
viability, T/C (second compound 0.00949 µM, first compound 0.1 µM): 4.6%
viability, T/C (second compound 0.00949 µM, first compound 0.316 µM): 5.64%
viability, T/C (second compound 0.00949 µM, first compound 1 µM): 3.71%
viability, T/C (second compound 0.00949 µM, first compound 3.16 µM): 0.61%
viability, T/C (second compound 0.00949 µM, first compound 10 µM): 3.05%
viability, T/C (second compound 0.03 µM, first compound 0.0316 µM): 2.61%
viability, T/C (second compound 0.03 µM, first compound 0.1 µM): 2.47%
viability, T/C (second compound 0.03 µM, first compound 0.316 µM): 2.47%
viability, T/C (second compound 0.03 µM, first compound 1 µM): 2.01%
viability, T/C (second compound 0.03 µM, first compound 3.16 µM): 0.73%
viability, T/C (second compound 0.03 µM, first compound 10 µM): 1.89%
viability, T/C (second compound 0.0949 µM, first compound 0.0316 µM): 1.88%
viability, T/C (second compound 0.0949 µM, first compound 0.1 µM): 1.8%
viability, T/C (second compound 0.0949 µM, first compound 0.316 µM): 1.76%
viability, T/C (second compound 0.0949 µM, first compound 1 µM): 2.22%
viability, T/C (second compound 0.0949 µM, first compound 3.16 µM): 0.82%
viability, T/C (second compound 0.0949 µM, first compound 10 µM): 2.4%
viability, T/C (second compound 0.3 µM, first compound 0.0316 µM): 2.16%
viability, T/C (second compound 0.3 µM, first compound 0.1 µM): 1.88%
viability, T/C (second compound 0.3 µM, first compound 0.316 µM): 1.75%
viability, T/C (second compound 0.3 µM, first compound 1 µM): 1.54%
viability, T/C (second compound 0.3 µM, first compound 3.16 µM): 0.54%
viability, T/C (second compound 0.3 µM, first compound 10 µM): 1.98%

CCn1c(-c2cccnc2C(C)OC)c2c3cc(ccc31)N1CCOC(CC(NC(=O)C(C(C)C)N(C)C(=O)C3(F)CCN(C(=O)C#CC(C)(C)N(C)C)CC3)C(=O)N3CCCC(N3)C(=O)OCC(C)(C)C2)C1 (stereo unspecified)
viability, T/C (compound 0.000949 µM): 105% [middle of 8 runs]
viability, T/C (compound 0.003 µM): 109% [middle of 8 runs]
viability, T/C (compound 0.03 µM): 99.3% [middle of 8 runs]
viability, T/C (compound 0.0949 µM): 99.5% [middle of 8 runs]
viability, T/C (compound 0.3 µM): 88% [middle of 8 runs]
IC50 (compound alone, run of 08/20/2024): > 0.3 µM

Cc1nc(N2CCC3(CC2)COC(C)C3N)c(CO)nc1Sc1ccnc(N)c1Cl (stereo unspecified) + C=CC(=O)N1CCN(c2nc(OCC3CCCN3C)nc3c(F)c(-c4nc(N)cc(C)c4C(F)(F)F)c(Cl)cc23)C(C)C1
IC50 (curve of first compound, second compound 0.00316 µM): > 10 µM
IC50 (curve of first compound, second compound 0.01 µM): > 10 µM
IC50 (curve of first compound, second compound 0.0316 µM): > 10 µM
IC50 (curve of first compound, second compound 0.1 µM): > 10 µM
IC50 (curve of first compound, second compound 0.316 µM): > 10 µM
IC50 (curve of first compound, second compound 1 µM): > 10 µM
viability, T/C (second compound 0.00316 µM, first compound 0.0316 µM): 94.2%
viability, T/C (second compound 0.00316 µM, first compound 0.1 µM): 77%
viability, T/C (second compound 0.00316 µM, first compound 0.316 µM): 84%
viability, T/C (second compound 0.00316 µM, first compound 1 µM): 80.4%
viability, T/C (second compound 0.00316 µM, first compound 3.16 µM): 70%
viability, T/C (second compound 0.00316 µM, first compound 10 µM): 67%
viability, T/C (second compound 0.01 µM, first compound 0.0316 µM): 90.9%
viability, T/C (second compound 0.01 µM, first compound 0.1 µM): 85.9%
viability, T/C (second compound 0.01 µM, first compound 0.316 µM): 81%
viability, T/C (second compound 0.01 µM, first compound 1 µM): 74.7%
viability, T/C (second compound 0.01 µM, first compound 3.16 µM): 79.1%
viability, T/C (second compound 0.01 µM, first compound 10 µM): 77.8%
viability, T/C (second compound 0.0316 µM, first compound 0.0316 µM): 91.1%
viability, T/C (second compound 0.0316 µM, first compound 0.1 µM): 80.7%
viability, T/C (second compound 0.0316 µM, first compound 0.316 µM): 72.4%
viability, T/C (second compound 0.0316 µM, first compound 1 µM): 80.4%
viability, T/C (second compound 0.0316 µM, first compound 3.16 µM): 79.2%
viability, T/C (second compound 0.0316 µM, first compound 10 µM): 78.4%
viability, T/C (second compound 0.1 µM, first compound 0.0316 µM): 84.4%
viability, T/C (second compound 0.1 µM, first compound 0.1 µM): 82.7%
viability, T/C (second compound 0.1 µM, first compound 0.316 µM): 70.7%
viability, T/C (second compound 0.1 µM, first compound 1 µM): 76%
viability, T/C (second compound 0.1 µM, first compound 3.16 µM): 80.1%
viability, T/C (second compound 0.1 µM, first compound 10 µM): 74.6%
viability, T/C (second compound 0.316 µM, first compound 0.0316 µM): 91.8%
viability, T/C (second compound 0.316 µM, first compound 0.1 µM): 87%
viability, T/C (second compound 0.316 µM, first compound 0.316 µM): 76.5%
viability, T/C (second compound 0.316 µM, first compound 1 µM): 79.3%
viability, T/C (second compound 0.316 µM, first compound 3.16 µM): 75.7%
viability, T/C (second compound 0.316 µM, first compound 10 µM): 69.8%
viability, T/C (second compound 1 µM, first compound 0.0316 µM): 84.1%
viability, T/C (second compound 1 µM, first compound 0.1 µM): 91.2%
viability, T/C (second compound 1 µM, first compound 0.316 µM): 81.7%
viability, T/C (second compound 1 µM, first compound 1 µM): 73.6%
viability, T/C (second compound 1 µM, first compound 3.16 µM): 78.4%
viability, T/C (second compound 1 µM, first compound 10 µM): 79.8%

Cc1nc(N2CCC3(CC2)COC(C)C3N)c(CO)nc1Sc1ccnc(N)c1Cl (stereo unspecified)
viability, T/C (compound 0.0316 µM): 92% [middle of 4 runs]
viability, T/C (compound 0.1 µM): 85.4% [middle of 4 runs]
viability, T/C (compound 0.316 µM): 83.3% [middle of 4 runs]
viability, T/C (compound 1 µM): 85.2% [middle of 4 runs]
viability, T/C (compound 3.16 µM): 84.6% [middle of 4 runs]
viability, T/C (compound 10 µM): 79% [middle of 4 runs]
IC50 (curve of compound): > 10 µM

CC1(O)CCCC1n1c(=O)c(C(F)F)cc2cnc(NC3CCN(S(C)(=O)=O)CC3)nc21 (stereo unspecified)
viability, T/C (compound 0.0316 µM): 77.2% [middle of 4 runs]
viability, T/C (compound 0.1 µM): 50% [middle of 4 runs]
viability, T/C (compound 0.316 µM): 21.1% [middle of 4 runs]
viability, T/C (compound 1 µM): 25.5% [middle of 4 runs]
viability, T/C (compound 3.16 µM): 34.8% [middle of 4 runs]
viability, T/C (compound 10 µM): 6.6% [middle of 4 runs]
IC50 (curve of compound): 100 nM [middle of 4 runs]

CCN1CCN(Cc2ccc(Nc3ncc(F)c(-c4cc(F)c5nc(C)n(C(C)C)c5c4)n3)nc2)CC1
viability, T/C (compound 0.00316 µM): 98.7% [middle of 4 runs]
viability, T/C (compound 0.01 µM): 79.1% [middle of 4 runs]
viability, T/C (compound 0.0316 µM): 70.3% [middle of 4 runs]
viability, T/C (compound 0.1 µM): 60% [middle of 4 runs]
viability, T/C (compound 0.316 µM): 44.2% [middle of 4 runs]
viability, T/C (compound 1 µM): 38% [middle of 4 runs]
IC50 (curve of compound): 194 nM [middle of 4 runs]
